Test results from publication PMC6692420, “Validation of [^125I]CPCR4.3 as an investigative tool for the sensitive and specific detection of hCXCR4 and mCXCR4 expression in vitro and in vivo” (EJNMMI Research, 2019).
Non-standard residues stand in square brackets, D forms with d. Residues, ends and D or L forms follow the SMILES beside them. dAla(N-(6-guanidinohexyl)) = C[C@@H](NCCCCCCNC(=N)N)C(=O)O; dTyr(3-I) = N[C@H](Cc1ccc(O)c(I)c1)C(=O)O; 2Nal = N[C@@H](Cc1ccc2ccccc2c1)C(=O)O

Legend:
hCXCR4 = molecular target: T1, hCXCR4 (Homo sapiens, UniProt P61073); assay: Competitive binding assay (IC50) on Jurkat cells with [^125I]CPCR4.3 as radioligand; conditions: for IC50: Jurkat human T cell leukemia cells, 200,000 cells/sample, radioligand [^125I]CPCR4.3
T1 construct: endogenous hCXCR4 (Jurkat); endogenous in cells
Procedure: To allow data normalization, [^natGa] […] Experiments were performed in triplicate with n = 3 per concentration in each experiment. IC50 values were calculated using GraphPad Prism 6.01 (Graph Pad Software, San Diego, USA).

mCXCR4 = molecular target: T2, mCXCR4 (Mus musculus, UniProt P70658); assay: Competitive binding assay (IC50) on Eμ-Myc 1080 mouse lymphoma cells with [^125I]CPCR4.3 as radioligand; conditions: Eμ-Myc1080 mouse B cell lymphoma cells, 200,000 cells/sample, radioligand [^125I]CPCR4.3
T2 construct: endogenous in cells; host or cells: Eμ-myc 1080 mouse B cell lymphoma cells
Procedure: To allow data normalization, [^natGa] Pentixafor and FC-131 were included as references in this study. Experiments were performed in triplicate with n = 3 per concentration in each experiment. IC50 values were calculated using GraphPad Prism 6.01 (Graph Pad Software, San Diego, USA).

T1 sequence (P61073 whole entry): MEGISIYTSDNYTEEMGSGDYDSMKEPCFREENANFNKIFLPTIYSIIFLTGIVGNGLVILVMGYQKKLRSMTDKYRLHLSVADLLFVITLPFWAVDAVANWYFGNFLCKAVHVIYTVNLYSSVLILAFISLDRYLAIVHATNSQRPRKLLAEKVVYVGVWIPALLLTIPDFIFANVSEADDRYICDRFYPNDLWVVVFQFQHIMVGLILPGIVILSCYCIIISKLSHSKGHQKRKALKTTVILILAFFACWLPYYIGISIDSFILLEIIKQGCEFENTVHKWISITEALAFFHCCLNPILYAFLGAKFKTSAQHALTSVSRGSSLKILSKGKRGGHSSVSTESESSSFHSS
T2 sequence (P70658 whole entry): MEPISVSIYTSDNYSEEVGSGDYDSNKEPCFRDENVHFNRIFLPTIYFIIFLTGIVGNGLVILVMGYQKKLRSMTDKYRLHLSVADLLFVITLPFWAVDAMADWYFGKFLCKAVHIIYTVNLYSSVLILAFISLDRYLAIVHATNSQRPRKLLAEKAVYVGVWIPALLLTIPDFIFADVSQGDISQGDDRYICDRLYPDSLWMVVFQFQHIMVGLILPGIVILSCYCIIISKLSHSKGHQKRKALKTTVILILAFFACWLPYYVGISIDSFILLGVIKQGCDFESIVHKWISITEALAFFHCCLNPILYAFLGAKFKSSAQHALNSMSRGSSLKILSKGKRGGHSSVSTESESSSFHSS

Compound	IC50 (hCXCR4) [nM]	IC50 (mCXCR4) [nM]	hCXCR4 affinity higher than [^natGa]Pentixafor (hCXCR4; assay conditions of this study)
Ga-Pentixafor: natGa complex of the cyclic pentapeptide Pentixafor, hCXCR4 selective reference ligand (YXRXG; Head-to-tail cyclic pentapeptide; The parent CPCR4.3 is printed as cyclo(-D-Tyr1-D-[N-hexyl-6-guanidino]Ala2-Arg3-Nal4-Gly5-); the text states that Pentixafor has D-Orn at position 2 instead of the N-)	42.4 ± 11.6		
C[C@@H]1C(=O)N[C@@H](CCCNC(=N)N)C(=O)N[C@@H](Cc2ccc3ccccc3c2)C(=O)NCC(=O)N[C@H](Cc2ccc(O)cc2)C(=O)N1CCCCCCNC(=N)N [CPCR4.3, cyclo(-D-Tyr^1-D-[N-hexyl-6-guanidino]Ala^2-Arg^3-Nal^4-Gly^5-)] (cyclo([dY][dAla(N-(6-guanidinohexyl))]R[2Nal]G))	2.8 ± 1.1	0.8 ± 0.1	
Ga-Pentixafor: natGa complex of the cyclic pentapeptide Pentixafor, hCXCR4 selective reference ligand		> 1000	
N=C(N)NCCC[C@@H]1NC(=O)[C@H](CCCNC(=N)N)NC(=O)[C@@H](Cc2ccc(O)cc2)NC(=O)CNC(=O)[C@H](Cc2ccc3ccccc3c2)NC1=O [FC-131]		119 ± 69	more than 3 fold
C[C@@H]1C(=O)N[C@@H](CCCNC(=N)N)C(=O)N[C@@H](Cc2ccc3ccccc3c2)C(=O)NCC(=O)N[C@H](Cc2ccc(O)c(I)c2)C(=O)N1CCCCCCNC(=N)N [iodo-CPCR4.3] (cyclo([dTyr(3-I)][dAla(N-(6-guanidinohexyl))]R[2Nal]G))	5.4 ± 1.5	4.9 ± 1.7	
